Test: plasma concentration of ibogaine and its metabolite 12-hydroxy ibogamine over time after ibogaine administration to a human patient
Assay type: in vivo
Protocol: An amount of ibogaine was administered to a human patient, and the plasma concentration of both ibogaine and a metabolite thereof, 12-hydroxy ibogamine, were observed as a function of time.
FIG. 1 illustrates the result of administering a certain dosage of ibogaine to a human patient, where the plasma concentration of ibogaine is measured over time. In essence, a peak plasma concentration of about 1,100 ng/ml is observed at administration. It is also notable that at about 11 hours after ibogaine administration, plasma concentration of ibogaine diminished to less than 400 ng/ml. After about 24 hours, plasma concentration diminished to less than 200 ng/ml. Thus, ibogaine is rather quickly eliminated by the patient.
By contrast, FIG. 2 illustrates the variation of noribogaine plasma concentration with time as a metabolite from the same ibogaine administration described above. In essence, a peak plasma concentration of noribogaine of about 590 ng/ml was reached only after about 11 hours from administration. Thereafter, even at 24 hours, a plasma concentration of greater than 500 ng/ml was observed.

SMILES | plasma concentration of ibogaine (after about 24 hours) | plasma concentration of ibogaine (at about 11 hours after ibogaine administration) | peak plasma concentration of ibogaine (ibogaine administered, (FIG. 1)) | plasma half-life compared with ibogaine (after ibogaine administration) | plasma concentration of noribogaine (at 24 hours, metabolite after ibogaine administration) | time from administration to peak plasma concentration of noribogaine (noribogaine as metabolite after ibogaine administration) | peak plasma concentration of noribogaine (noribogaine as metabolite from the same ibogaine administration (FIG. 2))
CC[C@H]1CC2C[C@H]3c4[nH]c5ccc(OC)cc5c4CCN(C2)C13 [ibogaine, reference compound] | less than 200 ng/ml | less than 400 ng/ml | about 1,100 ng/ml | – | – | – | –
CC[C@H]1C[C@H]2C[C@H]3c4[nH]c5ccc(O)cc5c4CCN(C2)[C@@H]13 [noribogaine, 12-hydroxy ibogamine] | – | – | – | much longer plasma half-life than ibogaine | greater than 500 ng/ml | about 11 hours | about 590 ng/ml

From US6348456B1, “Method of treating chemical dependency in mammals and a composition therefor” (priority 1994, dated 2002)
